Earlier results in US9150734B2, “Zwitterionic lignin derivatives for marine antifouling coatings” (Empire Technology Development LLC, priority 2012, dated 2015).

System: diatom species
Settings: variety of diatom species, various concentrations; variation between species

benzalkonium chloride
concentration at which all diatoms were killed: less than 0.001%
